Bridge positions count the residues as written; N and C are the ends. Square brackets hold non-standard residues; d marks the D form. Peptide text beside a SMILES is read from it. * marks the point of attachment. ξ: configuration not given here. Phe(3-OCH2COOH) = N[C@@H](Cc1cccc(OCC(=O)O)c1)C(=O)O; dPhe(3-NO2) = N[C@H](Cc1cccc([N+](=O)[O-])c1)C(=O)O; Phe(4-COOH) = N[C@@H](Cc1ccc(C(=O)O)cc1)C(=O)O; Bip = N[C@@H](Cc1ccc(-c2ccccc2)cc1)C(=O)O; Phe(3-OMe) = COc1cccc(C[C@H](N)C(=O)O)c1; Phe(3-Me) = Cc1cccc(C[C@H](N)C(=O)O)c1; Val(3-OH) = CC(C)(O)[C@H](N)C(=O)O; 3Pal = N[C@@H](Cc1cccnc1)C(=O)O; Cha = N[C@@H](CC1CCCCC1)C(=O)O; Cit = NC(=O)NCCC[C@H](N)C(=O)O; Ile(3ξ) = CCC(C)[C@H](N)C(=O)O; Thr(3ξ) = CC(O)[C@H](N)C(=O)O; Ahp(2) = CCCCC[C@H](N)C(=O)O; Carboxymethyl = O=C(O)C*; NMeA = CN[C@@H](C)C(=O)O; Orn = NCCC[C@H](N)C(=O)O; Pra = C#CC[C@H](N)C(=O)O; Dab = NCC[C@H](N)C(=O)O; Abu = CC[C@H](N)C(=O)O; Dap = NC[C@H](N)C(=O)O

T1 sequence (Q15116 25-288): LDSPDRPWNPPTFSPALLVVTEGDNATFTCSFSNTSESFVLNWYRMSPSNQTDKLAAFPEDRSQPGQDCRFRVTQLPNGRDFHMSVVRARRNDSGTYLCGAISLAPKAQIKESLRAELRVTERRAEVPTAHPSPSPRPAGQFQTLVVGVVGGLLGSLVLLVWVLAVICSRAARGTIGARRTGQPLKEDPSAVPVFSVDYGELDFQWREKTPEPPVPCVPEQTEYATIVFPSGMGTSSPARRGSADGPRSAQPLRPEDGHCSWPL

The experiment has as its target T1, PE-labeled human PD-L1-Ig binding to Jurkat cell line over-expressing human PD-1 (Jurkat-PD-1) (Homo sapiens, UniProt Q15116).
T1 construct: expressed in transfected cells; host or cells: Jurkat
Put plainly: Jurkat-PD-1 Cell Binding High-Content Screening Assay (CBA): Method 1. Conditions: Jurkat-hPD-1 cells, PE-labeled PD-L1-Ig 20 nM final; read-out: Jurkat HPDL1 PD1 IC50 (uM) (Method 1).
Consider `CCC(C)[C@@H]1NC(=O)[C@H](Cc2ccc(-c3ccccc3)cc2)NC(=O)[C@H](C(C)C)NC(=O)[C@H](Cc2c[nH]c3ccccc23)NC(=O)[C@H](CC(=O)O)NC(=O)[C@H](Cc2ccc(OCC(=O)O)cc2)NC(=O)[C@H](C(C)O)NC(=O)CSC[C@@H](C(=O)N[C@@H](CO)C(=O)O)NC(=O)[C@H](C(C)O)NC(=O)[C@H](C(C)C)NC(=O)[C@H](CC2CCCCC2)NC(=O)[C@H](CCN)NC(=O)[C@@H](CC(C)C)NC(=O)[C@H](C)N(C)C1=O` (stereo partly drawn) [Compound 2230] ({CH2CO}-[Thr(3ξ)]Y(Carboxymethyl)DWV[Bip][Ile(3ξ)][NMeA][dL][Dab][Cha]V[Thr(3ξ)]CS-OH; thioether N-14), for which the concentration for half-maximal inhibition (IC50) (in general, the point on the concentration scale where inhibition reaches its midpoint) came out at 0.03 µM. For `CC(C)C[C@@H]1NC(=O)[C@H](CCCNC(=N)N)NC(=O)[C@@H](Cc2cccc([N+](=O)[O-])c2)NC(=O)[C@H](C)N(C)C(=O)[C@H](CCCNC(=N)N)NC(=O)[C@H](Cc2ccc(-c3ccccc3)cc2)NC(=O)[C@H](C(C)C)NC(=O)[C@H](Cc2c[nH]c3ccccc23)NC(=O)[C@H](CC(=O)O)NC(=O)[C@H](Cc2ccc(O)cc2)NC(=O)[C@H](Cc2ccccc2)NC(=O)CSC[C@@H](C(=O)N[C@@H](C)C(N)=O)NC(=O)[C@H]([C@@H](C)O)NC(=O)[C@H](C(C)C)NC1=O` [Compound 1074] ({CH2CO}-FYDWV[Bip]R[NMeA][dPhe(3-NO2)]RLVTCA-NH2; thioether N-14) the value was 0.11 µM; for `C#CC[C@H](NC(=O)CNC(=O)[C@@H]1CSCC(=O)N[C@@H](Cc2ccc(OCC(=O)O)cc2)C(=O)N[C@@H](Cc2ccc(C(=O)O)cc2)C(=O)N[C@@H](CC(=O)O)C(=O)N[C@@H](Cc2c[nH]c3ccccc23)C(=O)N[C@@H](CC(C)C)C(=O)N[C@@H](Cc2ccc(-c3ccccc3)cc2)C(=O)N[C@@H](C(C)C)C(=O)N(C)[C@@H](C)C(=O)N[C@H](CC(C)C)C(=O)N[C@@H](CCN)C(=O)N[C@@H](CC2CCCCC2)C(=O)N[C@@H](C(C)C)C(=O)N[C@@H](CO)C(=O)N1)C(N)=O` [Compound 1932] ({CH2CO}-Y(Carboxymethyl)[Phe(4-COOH)]DWL[Bip]V[NMeA][dL][Dab][Cha]VSCG[Pra]-NH2; thioether N-14), 0.02 µM; for `CC(C)C[C@@H]1NC(=O)[C@H](Cc2c[nH]c3ccccc23)NC(=O)[C@H](CC(=O)O)NC(=O)[C@H](Cc2ccc(O)cc2)NC(=O)[C@H](Cc2cccnc2)NC(=O)CSC[C@@H](C(=O)NCC(N)=O)NC(=O)[C@H](CO)NC(=O)[C@H](C(C)C)NC(=O)[C@H](CC(C)C)NC(=O)[C@H](CC(N)=O)NC(=O)[C@@H](C)NC(=O)[C@H](C)N(C)C(=O)[C@H](C(C)C)NC(=O)[C@H](Cc2ccc(-c3ccccc3)cc2)NC1=O` [Compound 1743] ({CH2CO}-[3Pal]YDWL[Bip]V[NMeA][dA]NLVSCG-NH2; thioether N-14), 0.02 µM. Consider `CCC(C)[C@@H]1NC(=O)[C@H](Cc2ccc(-c3ccccc3)cc2)NC(=O)[C@H](CC(C)C)NC(=O)[C@H](Cc2c[nH]c3ccccc23)NC(=O)[C@H](CC(=O)O)NC(=O)[C@H](Cc2ccc(C(=O)O)cc2)NC(=O)[C@H](Cc2ccc(OCC(=O)O)cc2)NC(=O)CSC[C@@H](C(=O)N[C@@H](CC(N)=O)C(N)=O)NC(=O)[C@H](CO)NC(=O)[C@H](C(C)C)NC(=O)[C@H](CC2CCCCC2)NC(=O)[C@H](CCN)NC(=O)[C@@H](CC(C)C)NC(=O)[C@H](C)N(C)C1=O` (stereo partly drawn) [Compound 1917] ({CH2CO}-Y(Carboxymethyl)[Phe(4-COOH)]DWL[Bip][Ile(3ξ)][NMeA][dL][Dab][Cha]VSCN-NH2; thioether N-14), for which the concentration for half-maximal inhibition (IC50) was found to be 0.04 µM.

Turning to `CC(C)C[C@@H]1NC(=O)[C@H](Cc2c[nH]c3ccccc23)NC(=O)[C@H](CC(=O)O)NC(=O)[C@H](Cc2ccc(O)cc2)NC(=O)[C@H](Cc2ccccc2)NC(=O)CSC[C@@H](C(=O)N[C@@H](C)C(N)=O)NC(=O)[C@H](CO)NC(=O)[C@H](C(C)C)NC(=O)[C@H](CC(C)C)NC(=O)[C@H](CCCCN)NC(=O)[C@@H](C)NC(=O)[C@H](C)N(C)C(=O)[C@H](C(C)C)NC(=O)[C@H](Cc2ccc(-c3ccccc3)cc2)NC1=O` [Compound 1748] ({CH2CO}-FYDWL[Bip]V[NMeA][dA]KLVSCA-NH2; thioether N-14), the IC50 was 0.02 µM.

As to `CC(C)C[C@@H]1NC(=O)[C@H](Cc2c[nH]c3ccccc23)NC(=O)[C@H](CC(=O)O)NC(=O)[C@H](Cc2ccc(O)cc2)NC(=O)[C@H](Cc2ccccc2)NC(=O)CSC[C@@H](C(=O)N[C@@H](C)C(N)=O)NC(=O)[C@H](CO)NC(=O)[C@H](CCN)NC(=O)[C@H](CC(C)C)NC(=O)[C@H](CC(N)=O)NC(=O)[C@@H](C)NC(=O)[C@H](C)N(C)C(=O)[C@H](C(C)C)NC(=O)[C@H](Cc2ccc(-c3ccccc3)cc2)NC1=O` [Compound 1531] ({CH2CO}-FYDWL[Bip]V[NMeA][dA]NL[Dab]SCA-NH2; thioether N-14), the 50% inhibitory concentration (IC50) was determined as 0.11 µM. Then `CC(C)C[C@@H]1NC(=O)[C@H](Cc2c[nH]c3ccccc23)NC(=O)[C@H](CC(=O)O)NC(=O)[C@H](Cc2ccc(O)cc2)NC(=O)[C@H](Cc2ccccc2)NC(=O)CSC[C@@H](C(=O)NCC(N)=O)NC(=O)[C@H]([C@@H](C)O)NC(=O)[C@H](C(C)C)NC(=O)[C@H](CC(C)C)NC(=O)[C@H](CCN)NC(=O)[C@@H](CC(C)C)NC(=O)[C@H](C)N(C)C(=O)[C@H](C(C)C)NC(=O)[C@H](Cc2ccc(-c3ccccc3)cc2)NC1=O` [Compound 1469] ({CH2CO}-FYDWL[Bip]V[NMeA][dL][Dab]LVTCG-NH2; thioether N-14), with 0.01 µM.

Turning to `CC[C@@H]1NC(=O)[C@H](CCCNC(=N)N)NC(=O)[C@@H](CC(C)C)NC(=O)[C@H](C)N(C)C(=O)[C@H](CCCNC(=N)N)NC(=O)[C@H](Cc2ccc(-c3ccccc3)cc2)NC(=O)[C@H](C(C)C)NC(=O)[C@H](Cc2c[nH]c3ccccc23)NC(=O)[C@H](CC(=O)O)NC(=O)[C@H](Cc2ccc(O)cc2)NC(=O)[C@H](Cc2ccccc2)NC(=O)CSC[C@@H](C(=O)N[C@@H](C)C(N)=O)NC(=O)[C@H]([C@@H](C)O)NC(=O)[C@H](C(C)C)NC1=O` [Compound 1114] ({CH2CO}-FYDWV[Bip]R[NMeA][dL]R[Abu]VTCA-NH2; thioether N-14), the IC50 was 0.93 µM. On to `Cc1cccc(C[C@@H]2NC(=O)[C@H](CC(=O)O)NC(=O)[C@H](Cc3ccc(C(=O)O)cc3)NC(=O)[C@H](CN)NC(=O)CSC[C@@H](C(=O)N[C@@H](C)C(N)=O)NC(=O)[C@H]([C@@H](C)O)NC(=O)[C@H](C(C)C)NC(=O)[C@H](CC(C)C)NC(=O)[C@H](CCN)NC(=O)[C@@H](CC(C)C)NC(=O)[C@H](C)N(C)C(=O)[C@H](CCCNC(N)=O)NC(=O)[C@H](Cc3ccc(-c4ccccc4)cc3)NC(=O)[C@H](C(C)C)NC2=O)c1` [Compound 1429] ({CH2CO}-[Dap][Phe(4-COOH)]D[Phe(3-Me)]V[Bip][Cit][NMeA][dL][Dab]LVTCA-NH2; thioether N-14), for which the IC50 came out at 0.01 µM. Then `CC(=O)NCCC[C@@H]1NC(=O)[C@H](Cc2ccc(-c3ccccc3)cc2)NC(=O)[C@H](Cc2ccc(O)cc2)NC(=O)[C@H](Cc2cccc(C)c2)NC(=O)[C@H](CC(=O)O)NC(=O)[C@H](Cc2ccc(OCC(=O)O)cc2)NC(=O)[C@H](CCCNC(=N)N)NC(=O)CSC[C@@H](C(N)=O)NC(=O)[C@H]([C@@H](C)O)NC(=O)[C@H](C(C)C)NC(=O)[C@H](CC2CCCCC2)NC(=O)[C@H](CCN)NC(=O)[C@@H](CC(C)C)NC(=O)[C@H](C)N(C)C1=O` [Compound 1869] ({CH2CO}-RY(Carboxymethyl)D[Phe(3-Me)]Y[Bip][Orn](Ac)[NMeA][dL][Dab][Cha]VTC-NH2; thioether N-14), with 0.05 µM; and `CC[C@H](C)[C@@H]1NC(=O)[C@H](Cc2ccc(-c3ccccc3)cc2)NC(=O)[C@H](C(C)C)NC(=O)[C@H](Cc2cccc(C)c2)NC(=O)[C@H](CC(=O)O)NC(=O)[C@H](Cc2ccc(O)cc2)NC(=O)[C@H](CC(N)=O)NC(=O)CSC[C@@H](C(=O)N[C@@H](CCN)C(N)=O)NC(=O)[C@H](CCC(=O)O)NC(=O)[C@H](C(C)(C)O)NC(=O)[C@H](CC2CCCCC2)NC(=O)[C@H](CCN)NC(=O)[C@@H](CC(C)C)NC(=O)[C@H](C)N(C)C1=O` [Compound 1695] ({CH2CO}-NYD[Phe(3-Me)]V[Bip]I[NMeA][dL][Dab][Cha][Val(3-OH)]EC[Dab]-NH2; thioether N-14), with 0.01 µM. For `COc1cccc(C[C@@H]2NC(=O)[C@H](Cc3ccccc3)NC(=O)CSC[C@@H](C(=O)N[C@@H](C)C(N)=O)NC(=O)[C@H](CO)NC(=O)[C@H](C(C)C)NC(=O)[C@H](CC(C)C)NC(=O)[C@H](CC(N)=O)NC(=O)[C@@H](C)NC(=O)[C@H](C)N(C)C(=O)[C@H](C(C)C)NC(=O)[C@H](Cc3ccc(-c4ccccc4)cc3)NC(=O)[C@H](CC(C)C)NC(=O)[C@H](Cc3c[nH]c4ccccc34)NC(=O)[C@H](CC(=O)O)NC2=O)c1` [Compound 1732] ({CH2CO}-F[Phe(3-OMe)]DWL[Bip]V[NMeA][dA]NLVSCA-NH2; thioether N-14) the value was 0.01 µM; for `CC(C)C[C@@H]1NC(=O)[C@H](CCN)NC(=O)[C@@H](CC(C)C)NC(=O)[C@H](C)N(C)C(=O)[C@H](CCCNC(=N)N)NC(=O)[C@H](Cc2ccc(-c3ccccc3)cc2)NC(=O)[C@H](C(C)C)NC(=O)[C@H](Cc2c[nH]c3ccccc23)NC(=O)[C@H](CC(=O)O)NC(=O)[C@H](Cc2cccc(OCC(=O)O)c2)NC(=O)[C@H](CC(N)=O)NC(=O)CSC[C@@H](C(=O)N[C@@H](C)C(N)=O)NC(=O)[C@H]([C@@H](C)O)NC(=O)[C@H](C(C)C)NC1=O` [Compound 1372] ({CH2CO}-N[Phe(3-OCH2COOH)]DWV[Bip]R[NMeA][dL][Dab]LVTCA-NH2; thioether N-14), 0.14 µM; for `CCCCC[C@@H]1NC(=O)[C@H](Cc2ccc(-c3ccccc3)cc2)NC(=O)[C@H](C(C)C)NC(=O)[C@H](Cc2c[nH]c3ccccc23)NC(=O)[C@H](CC(=O)O)NC(=O)[C@H](Cc2ccc(O)cc2)NC(=O)[C@H](CC(N)=O)NC(=O)CSC[C@@H](C(=O)N[C@@H](C)C(N)=O)NC(=O)[C@H](C(C)O)NC(=O)[C@H](C(C)C)NC(=O)[C@H](CC(C)C)NC(=O)[C@H](CCN)NC(=O)[C@@H](CC(C)C)NC(=O)[C@H](C)N(C)C1=O` (stereo partly drawn) [Compound 2083] ({CH2CO}-NYDWV[Bip][Ahp(2)][NMeA][dL][Dab]LV[Thr(3ξ)]CA-NH2; thioether N-14), 0.06 µM.

Values taken from patent US20240409585A1, “MACROCYCLIC IMMUNOMODULATORS” (priority 2021, published 2024).
